Experimental findings from patent US7943146B2, “Immunizing compositions comprising HIV-1 proviral constructs with an inactive p6 gag TSG101 UEV binding domain capable of producing budding-defective viral particles that remain tethered to the cell surface” (priority 2001, dated 2011) are described below.

Series [1] can be described thus: Cytotoxicity measurement in uninfected PBMCs (MTS staining). The conditions noted are these: human PBMCs without virus, seven days; read-out: TC50. Format: cell-based. On the procedure:
At assay termination the assay plates were stained with the soluble tetrazolium-based dye MTS (CellTiter Reagent, Promega) to determine cell viability and quantify compound toxicity. MTS is metabolized by the mitochondria enzymes of metabolically active cells to yield a soluble formazan product, allowing the rapid quantitative analysis cell viability and compound cytotoxicity. […] At termination of the assay, 20 μl of MTS reagent was added per well. The wells were incubated overnight for the HIV cytoprotection assay at 37° C. The incubation intervals were chosen based on empirically determined times for optimal dye reduction in each cell type. Adhesive plate sealers were used in place of the lids, the sealed plate was inverted several times to mix the soluble formazan product and the plate was read spectrophotometrically at 490 nm with a Molecular Devices Vmax plate reader.

For the next series, the system named is HIV. Description: microbe, parasite or virus in culture. The series is classed as cell-based, HIV-1. As to the method: Fresh human blood was obtained commercially from Interstate Blood Bank, Inc. (Memphis, Tenn.). The lymphotropic clinical isolate HIV-1ROJO was obtained from a pediatric patient attending the AIDS Clinic at the University of Alabama at Birmingham. The laboratory-adapted HIV-1IIIB strain was propagated and tittered in fresh human PBMCs; pre-titered aliquots of HIV-1ROJO and Hiv-1IIIB were removed from the freezer (−80° C.) and thawed rapidly to room temperature in a biological safety cabinet immediately before use. Phytohemagglutinin (PHA-P) was obtained from Sigma (St. Louis, Mo.) and recombinant IL-2 was obtained from Amgen (San Francisco, Calif.).
Fresh human PBMCs were isolated from screened donors, seronegative for HIV and HBV. Leukophoresed blood was diluted 1:1 with Dulbecco's phosphate buffered saline (PBS), layered over 14 mL of Ficoll-Hypaque density gradient in a 50 mL centrifuge tube and then centrifuged for 30 minutes at 600×g. Banded PBMCs were aspirated from the resulting interface and subsequently washed 2× with PBS by low speed centrifugation. After the final wash, cells were enumerated by trypan blue exclusion and re-suspended at 1×10^7 cells/mL in RPMI 1640 supplemented with 15% Fetal Bovine Serum (FBS), 2 mM L-glutamine, 4 μg/mL PHA-P. The cells were allowed to incubate for 48-72 hours at 37° C. After incubation, PBMCs were centrifuged and reset in RPMI 1640 with 15% FBS, 2 mM L-glutamine, 100 U/ml penicillin, 100 μg/mL streptomycin, 10 μg/mL gentamycin, and 20 U/mL recombinant human IL-2. PBMCs were maintained in this medium at a concentration of 1-2×10^6 cells/mL with biweekly medium changes until used in the assay protocol.
For the standard PBMC assay, PHA-P stimulated cells from at least two normal donors were pooled, diluted in fresh medium to a final concentration of 1×10^6 cells/mL, and plated in the interior wells of 96 well round bottom microplate at 50 μL/well (5×10^4 cells/well). Test drug dilutions were prepared at a 2× concentration in microtiter tubes and […] of each concentration was placed in appropriate wells in a standard format. […] Wells with cells and virus alone were used for virus control. Separate plates were prepared identically without virus for drug cytotoxicity studies using an XTT assay system. The PBMC cultures were maintained for seven days following infection, at which time cell-free supernate samples were collected and assayed for reverse transcriptase activity as described below.
A microtiter based reverse transcriptase (RT) reaction was utilized. See Buckheit et al., AIDS Research and Human Retroviruses 7:295-302 (1991). Tritiated thymidine triphosphate (NEN) (TTP) was resuspended in distilled H2O at 5 Ci/ml. Poly rA and oligo dT were prepared as a stock solution which was kept at −20° C. The RT reaction buffer was prepared fresh on a daily basis and consists of 125 μl 1M EGTA, 125 μl dH2O, 110 μl 10% SDS, 50 μl 1M Tris (pH 7.4), 50 μl 1M DTT, and 40 μl 1M MgCL2. These three solutions were mixed together in a ratio of 2 parts TTP, 1 part poly rA:oligo dT, and 1 part reaction buffer. Ten microliters of this reactions mixture was placed at a round bottom microtiter plate and 15 μl of virus containing supernatant was added and mixed. […] Opti-Fluor-O (Packard) was added to each sample and incorporated radioactivity was quantified utilizing a Wallac 1450 MicroBeta Plus liquid scintillation counter.

The target of series [2] is T1, interaction between GAGp6 and Tsg101 (Homo sapiens, UniProt Q99816).
T1 construct: Drosophila S2 cell lysate myc-tagged Tsg101 (residues 1-207); made in house; host or cells: Drosophila S2 cells (Tsg101, used as cell lysate)
T1 sequence (Q99816 1-207): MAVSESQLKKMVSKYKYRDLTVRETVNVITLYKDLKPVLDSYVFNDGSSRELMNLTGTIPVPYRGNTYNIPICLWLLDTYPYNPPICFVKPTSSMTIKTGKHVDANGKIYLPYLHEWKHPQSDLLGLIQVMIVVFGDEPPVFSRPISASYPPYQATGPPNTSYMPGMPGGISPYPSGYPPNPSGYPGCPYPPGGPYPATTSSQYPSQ
Description: In vitro binding assay: GST-p6 on plate, myc-tagged Tsg101 (residues 1-207), competition by peptide. The conditions noted are these: FIG. 3, different peptide concentrations, fluorescence signal. On the procedure:
A fusion protein with a GST tag fused to the HIV-1 GAGp6 domain was recombinantly expressed and purified by chromatography. In addition, a GAGp6 peptide containing the first 14 amino acid residues (“p6(1-14)”) was synthesized chemically by standard peptide synthesis methods. The peptide was purified by conventional protein purification techniques, e.g., by chromatography.
Nunc/Nalgene Maxisorp plates were incubated overnight at 4° C. or for 1-2 hrs at room temperature in 100 μl of a protein coupling solution containing purified GST-p6 and 50 mM Carbonate, pH=9.6. This allowed the attachment of the GST-p6 fusion protein to the plates. Liquids in the plates were then emptied and wells filled with 400 μl/well of a blocking buffer (SuperBlock; Pierce-Endogen, Rockford, Ill.). […]
Plates were then washed 4×100 μl with 1×PBST solution (Invitrogen; Carlsbad, Calif.). […] Plates were then read on a Packard Fusion instrument at an excitation wavelength of 325 nm and an emission wavelength of 420 nm. […]
Different concentrations of the p6(1-14) peptide were tested, and the relative intensities of the fluorescence signals obtained at different concentrations were plotted against the peptide concentrations. […]

In the case of `Cc1cn([C@H]2C[C@H](N=[N+]=[N-])[C@@H](CO)O2)c(=O)[nH]c1=O` [AZT, 3′-Azido-3′-deoxythymidine, reference compound], in series [1], the CC50 at 7 days is more than 1000 nM. In the series with HIV (Human immunodeficiency virus 1, PBMC, 168 h, PHA-P stimulated human PBMCs, MOI≈0.1, seven days, RT activity in supernate), inhibition was half-maximal at 8 nM (IC50). The “Comments (anti-HIV activity)” value with HIV (human PBMCs) is recorded as “Control; Highly Active”.

Turning to “p6(1-14): GAGp6 peptide containing the first 14 amino acid residues, synthesized chemically (LQSRPEPTAPPEES)”, the “inhibition of the interaction between GAGp6 and Tsg101” value in series [2] is recorded as “competitive inhibition”.
